In patent publication US20260285850A1, “SUBSTITUTED OXAZOLIDINONES AND IMIDAZOLINONES AS HERBICIDES” (FMC CORPORATION, priority 2023, published 2026):

Tests used:
Assay type in all cases: in vivo
[1] = system: barnyardgrass (Echinochloa crus-galli); assay: Test A postemergence application, visual injury rating 0-100; conditions: Postemergence, 1000 g ai/ha, 0 to 100 scale, 10 days
Text: (§1) Seeds of plant species selected from barnyardgrass (Echinochloa crus-galli), blackgrass (Alopecurus myosuroides), corn (Zea mays), foxtail, giant (giant foxtail, Setaria faberi), green foxtail (Setaria viridis), goosegrass (Eleusine indica), kochia (Bassia scoparia), oat, wild (wild oat, Avena fatua), palmer (palmer amaranth, palmer pigweed, Amaranthus palmeri), ragweed (common ragweed, Ambrosia artemisiifolia), ryegrass, Italian (italian ryegrass, Lolium multiflorum), soybean (Glycine max) and wheat (Triticum aestivum) were planted into a blend of loam soil and sand and treated preemergence with a directed soil spray using test chemicals formulated in a non-phytotoxic solvent mixture which included a surfactant.
(§2) At the same time, plants selected from these crops and weed species and also galium (catchweed bedstraw, Galium aparine) and horseweed (Erigeron canadensis) were planted in pots containing the same blend of loam soil and sand and treated with postemergence applications of test chemicals formulated in the same manner. Plants ranged in height from 2 to 10 cm and were in the one- to two-leaf stage for the postemergence treatment. Treated plants and untreated controls were maintained in a greenhouse for 10 days, after which time all treated plants were compared to untreated controls and visually evaluated for injury. Plant response ratings, summarized in Table A, are based on a 0 to 100 scale where 0 is no effect and 100 is complete control. A dash (-) response means no test result.

[2] = system: galium (catchweed bedstraw, Galium aparine); assay: as above; conditions: Postemergence, 1000 g ai/ha, 0 to 100 scale, 10 days
Text: as §1, §2

[3] = system: blackgrass (Alopecurus myosuroides); assay: as above; conditions: Postemergence, 1000 g ai/ha, 0 to 100 scale, 10 days
Text: as §1, §2

[4] = system: green foxtail (Setaria viridis); assay: as above; conditions: Postemergence, 1000 g ai/ha, 0 to 100 scale, 10 days
Text: as §1, §2

[5] = system: horseweed (Erigeron canadensis); assay: as above; conditions: Postemergence, 1000 g ai/ha, 0 to 100 scale, 10 days
Text: as §1, §2

kochia (Bassia scoparia) [6] = assay: as above; conditions: Postemergence, 1000 g ai/ha, 0 to 100 scale, 10 days
Text: as §1, §2

[7] = system: barnyardgrass (Echinochloa crus-galli); assay: Test A preemergence soil spray, visual injury rating 0-100; conditions: 1000 g ai/ha, 10 days, 0 = no effect, 100 = complete control
Text: as §1, §2

[8] = system: palmer (palmer amaranth, palmer pigweed, Amaranthus palmeri); assay: as above; conditions: 1000 g ai/ha, 10 days, 0 = no effect, 100 = complete control
Text: as §1, §2

[9] = system: green foxtail (Setaria viridis); assay: as above; conditions: 1000 g ai/ha, 10 days, 0 = no effect, 100 = complete control
Text: as §1, §2

[10] = system: ryegrass, Italian (italian ryegrass, Lolium multiflorum); assay: as above; conditions: 1000 g ai/ha, 10 days, 0 = no effect, 100 = complete control
Text: as §1, §2

kochia (Bassia scoparia) [11] = assay: as above; conditions: 1000 g ai/ha, 10 days, 0 = no effect, 100 = complete control
Text: as §1, §2

[12] = system: sedge, umbrella (small-flower umbrella sedge, Cyperus difformis); assay: Test B flooded paddy test, visual plant response rating 0-100; conditions: 250 g ai/ha, Flood, applied to paddy water, evaluated after 13 days
Procedure: (§3) Plant species in the flooded paddy test selected from barnyardgrass (Echinochloa crusgalli), ducksalad (Heteranthera limosa), rice (Oryza sativa), and sedge, umbrella (small-flower umbrella sedge, Cyperus difformis) were grown to the 2-leaf stage for testing. At time of treatment, test pots were flooded to 3 cm above the soil surface, treated by application of test compounds directly to the paddy water, and then maintained at that water depth for the duration of the test. Treated plants and controls were maintained in a greenhouse for 13 days, after which time all species were compared to controls and visually evaluated. […] A dash (-) response means no test result.

[13] = system: barnyardgrass (Echinochloa crusgalli); assay: as above; conditions: 250 g ai/ha, Flood, applied to paddy water, evaluated after 13 days
Procedure: as §3

[14] = system: ducksalad (Heteranthera limosa); assay: as above; conditions: 250 g ai/ha, Flood, applied to paddy water, evaluated after 13 days
Procedure: as §3

rice (Oryza sativa) = assay: as above; conditions: 250 g ai/ha, Flood, applied to paddy water, evaluated after 13 days
Procedure: as §3

| SMILES | Barnyardgrass plant response rating [1] | Galium plant response rating [2] | Blackgrass plant response rating [3] | Foxtail, Green plant response rating [4] | Horseweed plant response rating [5] | Kochia plant response rating (kochia (Bassia scoparia) [6]) | Barnyardgrass plant response rating (0 to 100 scale) [7] | Amaranth, Palmer / Pigweed, Palmer plant response rating (0 to 100 scale) [8] | Foxtail, Green plant response rating (0 to 100 scale) [9] | Ryegrass, Italian plant response rating (0 to 100 scale) [10] | Kochia plant response rating (0 to 100 scale) (kochia (Bassia scoparia) [11]) | Plant response rating, Sedge, Umbrella (0 to 100 scale, 0 is no effect and 100 is complete control) [12] | Plant response rating, Barnyardgrass (0 to 100 scale, 0 is no effect and 100 is complete control) [13] | Plant response rating, Ducksalad (0 to 100 scale, 0 is no effect and 100 is complete control) [14] | Plant response rating, Rice (0 to 100 scale, 0 is no effect and 100 is complete control) (rice (Oryza sativa)) |
| --- | --- | --- | --- | --- | --- | --- | --- | --- | --- | --- | --- | --- | --- | --- | --- |
| COC(=O)C1C=CC(NC(=O)C2(C)CN(c3cc(F)cc(F)c3)C(=O)N2)C1 (stereo not shown) [Compound 180] | 100 | 90 | 90 | 90 | 90 | 80 | 100 | 100 | 100 | 100 | 100 |  |  |  |  |
| COC(=O)C1CC(NC(=O)C2(C(F)(F)F)CN(c3cc(F)cc(F)c3)C(=O)O2)C1 (stereo not shown) [Compound 196] |  |  |  |  |  |  |  |  |  |  |  | 95 | 95 | 50 | 85 |
| CC1(C(=O)NC2CC=C(C(=O)OCC3CC3)C2)CN(c2cc(Cl)cc(Cl)c2)C(=O)O1 (stereo not shown) [Compound 198] |  |  |  |  |  |  |  |  |  |  |  | 75 | 90 | 60 | 85 |
